Experimental data published in article PMC10348020, “Carbonic anhydrase inhibitory activity of phthalimide-capped benzene sulphonamide derivatives” (Journal of Enzyme Inhibition and Medicinal Chemistry, 2023).
Entries after “also recorded” stand apart in the source; their conditions may differ.

Legend:
hCA II = target: T1, hCA II (Homo sapiens, UniProt P00918); test: stopped-flow CO2 hydrase assay, hCA II; assay type: biochemical; conditions: for Ki: stopped-flow CO2 hydrase assay, mean from three different assays, errors ± 5–10%; for hCA II inhibition (in words): stopped-flow assay
T1 construct: hCA isoenzymes I and II used in these experiments were obtained, as earlier reported by our groups
Method: (§1) The CA isoenzyme assay was performed using a stopped-flow Applied Photophysics (SX.18V-R; Oxford, UK) instrument using Khalifah’s technique. hCA isoenzymes I and II used in these experiments were obtained, as earlier reported by our groups.

hCA I = target: T2, hCA I (Homo sapiens, UniProt P00915); test: stopped-flow CO2 hydrase assay, hCA I; assay type: biochemical; conditions: for Ki: stopped-flow CO2 hydrase assay, mean from three different assays, errors ± 5–10%; for hCA I inhibition (in words): stopped-flow assay
T2 construct: hCA isoenzymes I and II used in these experiments were obtained, as earlier reported by our groups
Method: as §1

dengue viral protease = test system: dengue viral protease; set-up: method as in PMID 26247308; conditions: previously reported by the group; cited from earlier work

T2 sequence (P00915 whole entry): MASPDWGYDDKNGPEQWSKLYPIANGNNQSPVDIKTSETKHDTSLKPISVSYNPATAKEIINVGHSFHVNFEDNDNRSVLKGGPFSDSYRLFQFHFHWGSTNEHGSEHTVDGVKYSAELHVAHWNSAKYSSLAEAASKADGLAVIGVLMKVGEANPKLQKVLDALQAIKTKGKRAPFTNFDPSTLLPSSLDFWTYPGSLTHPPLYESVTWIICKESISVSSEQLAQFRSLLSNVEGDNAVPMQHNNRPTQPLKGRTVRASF

Ki (hCA II) [µM] | Ki (hCA I) [µM] | Compound | dengue viral protease inhibition (in words) (dengue viral protease) | hCA I inhibition (in words) (hCA I) | hCA II inhibition (in words) (hCA II)
> 10 | > 10 | O=C1c2ccccc2C(=O)N1c1ccc(S(=O)(=O)Nc2ccc([N+](=O)[O-])cc2)cc1 [Compound 21] | – | – | –
> 10 | > 10 | O=C1c2ccccc2C(=O)N1c1ccc(S(=O)(=O)N(c2ccccc2)c2ccccc2)cc1 [Compound 6] | – | – | –
> 10 | > 10 | O=C1c2ccccc2C(=O)N1c1ccc(S(=O)(=O)Nc2ccccc2Cl)cc1 [Compound 13] | – | – | –
> 10 | > 10 | O=C(O)c1ccc(NS(=O)(=O)c2ccc(N3C(=O)c4ccccc4C3=O)cc2)cc1 [Compound 22] | – | – | –
> 10 | > 10 | COc1cccc(NS(=O)(=O)c2ccc(N3C(=O)c4ccccc4C3=O)cc2)c1 [Compound 11] | – | – | –
– | – | NS(=O)(=O)c1ccc(N2C(=O)c3ccccc3C2=O)cc1 [Compound 1] | inactive | – | –
– | 7.35 | O=C1c2ccccc2C(=O)N1c1ccc(S(=O)(=O)NCCc2ccccc2)cc1 [Compound 3] | – | showed hCA I inhibition; also recorded: inhibited hCA I | –
> 10 | > 10 | Cc1cccc(NS(=O)(=O)c2ccc(N3C(=O)c4ccccc4C3=O)cc2)c1 [Compound 17] | – | – | –
> 10 | > 10 | O=C1c2ccccc2C(=O)N1c1ccc(S(=O)(=O)Nc2cccc(Cl)c2)cc1 [Compound 14] | – | – | –
9.06 | > 10 | CN(C)S(=O)(=O)c1ccc(N2C(=O)c3ccccc3C2=O)cc1 [Compound 4] | – | – | showed hCA II inhibition at nanomolar concentrations; also recorded: inhibited hCA II
> 10 | > 10 | O=C1c2ccccc2C(=O)N1c1ccc(S(=O)(=O)Nc2ccccc2)cc1 [Compound 9] | – | – | –
> 10 | > 10 | CC(C)NS(=O)(=O)c1ccc(N2C(=O)c3ccccc3C2=O)cc1 [Compound 2] | – | – | –
> 10 | > 10 | O=C1c2ccccc2C(=O)N1c1ccc(S(=O)(=O)Nc2cccc([N+](=O)[O-])c2)cc1 [Compound 20] | – | – | –
> 10 | > 10 | CN1CCN(S(=O)(=O)c2ccc(N3C(=O)c4ccccc4C3=O)cc2)CC1 [Compound 8] | – | – | –
8.87 | 5.52 | O=C1c2ccccc2C(=O)N1c1ccc(S(=O)(=O)Nc2ccccc2O)cc1 [Compound 10] | – | showed hCA I inhibition; also recorded: inhibited hCA I | showed hCA II inhibition at nanomolar concentrations; also recorded: inhibited hCA II

Compound | Ki (hCA II) [µM] | Ki (hCA I) [µM] | dengue viral protease inhibition (in words) (dengue viral protease) | hCA I inhibition (in words) (hCA I) | hCA II inhibition (in words) (hCA II)
COc1ccc(NS(=O)(=O)c2ccc(N3C(=O)c4ccccc4C3=O)cc2)cc1 [Compound 12] | > 10 | > 10 | – | – | –
Cc1ccccc1NS(=O)(=O)c1ccc(N2C(=O)c3ccccc3C2=O)cc1 [Compound 16] | > 10 | > 10 | – | – | –
Cc1ccc(NS(=O)(=O)c2ccc(N3C(=O)c4ccccc4C3=O)cc2)cc1 [Compound 18] | > 10 | > 10 | – | – | –
O=C1c2ccccc2C(=O)N1c1ccc(S(=O)(=O)N2CCCCC2)cc1 [Compound 7] | > 10 | > 10 | – | – | –
O=C1c2ccccc2C(=O)N1c1ccc(S(=O)(=O)Nc2ccc(Cl)cc2)cc1 [Compound 15] | > 10 | 7.5 | – | showed hCA I inhibition; also recorded: inhibited hCA I | –
CCc1ccc(NS(=O)(=O)c2ccc(N3C(=O)c4ccccc4C3=O)cc2)cc1 [Compound 19] | > 10 | > 10 | potent dengue protease inhibitor | inactive | inactive
CCN(CC)S(=O)(=O)c1ccc(N2C(=O)c3ccccc3C2=O)cc1 [Compound 5] | > 10 | > 10 | – | – | –
